# Results from patent publication US8008259B2, “Neurotrophin-derived peptide sequences” (Copenhagen University, Techtrans Unit, priority 2005, dated 2011).
# Tests used:
# [1] = target: TrkC (Homo sapiens, UniProt Q16288); assay: Surface Plasmon Resonance binding to immobilized TrkC; conditions: SPR, 25° C., HBS-EP buffer pH 7.4, receptor immobilized on CM4 chip
# Protocol: The TrkA, TrkB and TrkC receptors and p75^NTR were immobilized on a sensor chip, CM4, using an amine-coupling kit as follows: the chip was activated by 20 μl activation solution, N-hydroxysuccinimide, (NHS) and N-ethyl-N′-(3-[…])-carbodiimide (EDC), the protein was immobilized using 30 μl of a mixture of 4 μl (0.5 μg/ml) protein in 50 μl 10 mM sodium acetate buffer (pH 4.0); and the chip was blocked by 35 μl blocking solution (ethanolamine-HCl). The receptor surface was regenerated between ligand injections with 15 μl 2 mM NaCl or 10 mM glycine-HCl, pH 2.5. In the present experiments a flow rate of 5 μl/min was used.
# The curve corresponding to the difference between binding to the Trk receptors or the […] receptor and a blank chip was used for analysis.
# [2] = system: cerebellar granule neurons (CGN); assay: Neurite outgrowth of primary cerebellar granule neurons in culture; assay type: cell-based, rat; conditions: CGN from 7 day old rats, peptide 3-81 μg/ml, 24 hours
# Protocol: Dissociated cerebellar neurons were isolated from 7 day old rats. Cerebellum was isolated from the brain in ice cold modified Krebs Ringer solution, cleared of blood vessels, roughly homogenised by chopping and then trypsinised. The dissociated cells were washed in the presence of DNAse 1 and soybean trypsin inhibitor. Postnatal hippocampal neurons or cerebellar granule neurons (CGN) were plated at a density of 10,000 cells/cm^2 on uncoated 8-well permanox Lab-Tek chamber slides in Neurobasal medium supplemented with 0.4% (w/v) bovine serum albumin (BSA; Sigma-Aldrich), 2% (v/v) B27 Neurobasal supplement, 1% (v/v) glutamax, 100 U/ml penicillin, 100 μg/ml streptomycin and 2% 1 M HEPES (all from Gibco, BRL). After 24 hours, the neurons were fixed with 4% (v/v) formaldehyde for 20 minutes and thereafter immunostained using primary rabbit antibodies against GAP-43 and Alexa Fluor secondary goat anti-rabbit Ig antibodies. Images of at least 200 neurons for each group in each individual experiment were obtained systematically by computer assisted fluorescence microscopy as previously described (Rønn et al., 2000). Briefly, a Nikon Diaphot inverted microscope with a Nikon Plan 20× objective (Nikon, Tokyo, Japan) coupled to a video camera (Grundig Electronics, Germany) was used for recordings. A software package Prima developed at the Protein Laboratory (Copenhagen, Denmark) was used to make a stereologically based determination of neurite length (Rønn et al., 2000).
# CGN prepared as described above were treated with different concentrations (3-81 μg/ml) of peptides NGF-C2, NGF-D, NGF-E, NGF-C1, NGF-EE, BDNF-E or BDNF-EE.
# [3] = system: focal brain injury; assay: Traumatic brain injury model (focal cryo-lesion of right fronto-parietal cortex), immunohistochemistry; assay type: in vivo, rat; conditions: lesioned rats, 10 mg/kg/injection subcutaneously on day (−1), 1 and 3
# Protocol: (§1) A focal brain injury on the right fronto-parietal cortex was made by applying a piece of dry-ice (−78° C.) directly onto the skull for 30 seconds in mice and 60 seconds in rats, as previously described in details (Penkowa et al., 2003).
# Histochemistry and immunohistochemistry were performed on sections cut from organs taken from fixated animals. Rats and mice were deeply anesthetized with Brietal and flushed by cardiac perfusion with saline containing heparine (0.9% NaCl, 3 ml/L 5000 IU heparine) for 2 minutes followed by fixation with Zamboni's fixative (pH 7.4) for 4-8 minutes depending on the size of the animal. For immunohistochemical investigation, brain were dissected and postfixed in Zamboni's for 2-3 hours, dehydraded in graded alcohol followed by xylol and subsequently embedded in paraffin before being cut in 3 μm frontal sections throughout the entire area of the cryo lesion. […]
# Following treatment as described above, sections were incubated overnight at 5° C. with one of the following primary antibodies: polyclonal rabbit anti-cow glial fibrillary acidic protein (GFAP) 1:250 (a marker for astrocytes; DakoCytomation); monoclonal mouse anti-8-hydroxydeoxyguanosine (8-OH-dG) diluted 1:100 in goat serum (a marker for DNA oxidation; Chemicon, Temacula, Calif., USA). The primary antibody was detected with biotynilated secondary antibodies, incubated with streptavidin-biotin-peroxidase complex for 30 min. […]
# as §1, with “In vivo experiments—A” for “A”, “2003). […] The primary antibody was detected with biotynilated secondary antibodies, incubated with streptavidin-biotin-peroxidase complex for 30 min. […]” for “2003).”
# Chain of TrkC (Q16288 32-839, species assumed): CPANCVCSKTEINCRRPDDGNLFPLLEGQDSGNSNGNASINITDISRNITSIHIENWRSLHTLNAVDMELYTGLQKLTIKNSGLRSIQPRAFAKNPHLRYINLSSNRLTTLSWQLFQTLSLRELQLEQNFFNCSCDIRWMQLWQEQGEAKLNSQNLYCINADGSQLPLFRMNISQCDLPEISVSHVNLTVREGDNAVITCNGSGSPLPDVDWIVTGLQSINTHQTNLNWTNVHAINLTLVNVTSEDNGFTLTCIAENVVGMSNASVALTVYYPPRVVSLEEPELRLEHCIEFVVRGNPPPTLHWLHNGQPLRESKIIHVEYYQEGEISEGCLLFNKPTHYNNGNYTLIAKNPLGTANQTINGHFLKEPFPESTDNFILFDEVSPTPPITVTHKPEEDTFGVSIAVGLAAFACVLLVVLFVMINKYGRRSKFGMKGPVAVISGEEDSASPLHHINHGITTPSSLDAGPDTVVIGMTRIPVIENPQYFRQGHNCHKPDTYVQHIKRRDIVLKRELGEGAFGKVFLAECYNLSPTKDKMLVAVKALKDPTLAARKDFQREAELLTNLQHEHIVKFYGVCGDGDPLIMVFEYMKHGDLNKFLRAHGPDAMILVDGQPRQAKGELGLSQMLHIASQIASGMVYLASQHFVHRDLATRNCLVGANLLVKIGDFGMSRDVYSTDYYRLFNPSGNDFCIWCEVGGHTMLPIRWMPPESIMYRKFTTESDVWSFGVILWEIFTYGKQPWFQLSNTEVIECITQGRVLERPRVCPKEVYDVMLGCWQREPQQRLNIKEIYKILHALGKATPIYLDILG
Substance,neurite outgrowth from primary neurons in culture [2],other results
"BDNF: Brain-derived neurotrophic factor, member of the neurotrophin family, reference ligand in SPR",,Kd [1]: 14 nM
H-CVLSRKAVRRA-OH [NGF-C2],significantly stimulate neurite outgrowth,
H-RGIDKRHWNSQ-OH [BDNF-E],significantly stimulate neurite outgrowth,
H-RGIDSKHWNSY-OH [NGF-E],significantly stimulate neurite outgrowth,
H-SYVRALTMDSKKRIGWR-OH [BDNF-EE],significantly stimulate neurite outgrowth,cortical astrocytes as reflected by immunostaining for GFAP [3]: activation of cortical astrocytes; microglia activation as reflected by binding of tomato lectin [3]: inhibition of microglia activation; oxidative stress as reflected by immunostaining for 8-hydroxydeoxyguanosine [3]: inhibition of oxidative stress
H-TFVKALTMDGKQAAWR-OH [NGF-EE],significantly stimulate neurite outgrowth,
"NGF-D: NGF-derived peptide, amino acids 2-14 of SEQ ID NO: 1 (YETKCRDPNPVDSG); lacks the hydrophobic residue of motif I (listed as Homo sapiens)",does not have neuritogenic activity,
"RIDTACV (listed as Homo sapiens) [NGF-C1, NGF-derived peptide, motif I]",significantly stimulate neurite outgrowth,
